Data taken from patent US11203578B2, “Oxadiazole derivatives for the treatment of genetic diseases due to nonsense mutations” (UNIVERSITA' DEGLI STUDI DIPALERMO, priority 2017, dated 2021).
Several values for one entry are separate records, joined by “and”; a condition that tells them apart may be missing. Equal values may be shown once. Read-outs that look alike come from different tables or passages of the source.

Key:
[1] = system: pFLuc-opal (UGA stop mutation); assay: FLuc cell-based readthrough assay in HeLa FLuc-opal transfected cells; design: key to Pharm Set: Active: as active, compounds with FLUC values >4.52 (ATALUREN FLUC value); Inactive: as inactives, compounds with FLUC values ≤4.00; Moderate: as moderate actives, compounds with 4.39≤FLUC values ≤4,51; conditions: for Pharm Set: class of activity related to the FLUC values
Source text: The results disclosed in (Pibiri I., Lentini L., Tutone M., Melfi R., Pace A., Di Leonardo A. Exploring the readthrough of nonsense mutations by non-acidic Ataluren analogues selected by ligand-based virtual screening. Eur. J. Med. Chem. 122 (2016) 429-435) have been refined with 3D-QSAR (quantitative structure-activity relationships) pharmacophore modelling. The endpoint to build QSAR models was the luciferase activity known data. These values were converted to pFLUC (−log FLUC) values. In order to find the common pharmacophore hypothesis, we divided the 24 compounds in three different classes of activity related to the FLUC values (Pharm set). We considered as active, compounds with FLUC values >4.52 (ATALUREN FLUC value), as inactives, compounds with FLUC values ≤4.00, and as moderate actives, compounds with 4.39≤FLUC values ≤4,51. Dataset was randomly split into a training set (19 compounds) for models generation, and test set (5 compounds) for the validation of developed models, as reported in Table 1.
To ascertain the effectiveness of the newly synthesized ataluren analogues in promoting the readthrough of premature termination codons was used the FLuc cell-based assay. To this aim HeLa cells were transfected transiently with the plasmids pFLuc-wild type (control) and pFLuc-opal (UGA stop mutation) (NIH Chemical Genomics Center, National Institutes of Health, Bethesda, USA). FLuc gene expression was then measured by luminescence.

[2] = system: pFLuc-opal (UGA stop mutation); conditions: luciferase activity known data, converted to pFLUC (−log FLUC); literature [1], [2]; cited from earlier work
[3] = system: HeLa cells; assay: Cytotoxic effects and impact on cell proliferation in HeLa cells; type: cell-based; conditions: 12 μM
Method: HeLa cells were used to determine the possible cytotoxic effects of our compounds and the impact on cell proliferation. In FIG. 7 are reported the percentages of dead cells and proliferating cells after treatment with 12 μM compounds and 12 μM ATALUREN.

COc1cccc(C(=O)c2nc(-c3ccccn3)no2)c1 [Compound 23-NV1940, 3-(2-pyridyl)-5-(3′-anisoyl)-1,2,4-oxadiazole]
Pharm Set [1]: Inactive
RLU values Exp. [2]: 4.000

Cc1cccc(-c2nc(-c3ccccn3)no2)c1 [Compound 21-NV1898, 3-(2-pyridyl)-5-(3′-toluyl)-1,2,4-oxadiazole]
Pharm Set [1]: Active
RLU values Exp. [2]: 4.551

Cc1cccc(-c2nc(-c3cccnc3)no2)c1 [Compound 17-NV1879, 3-(3′-pyridyl)-5-(3′-toluyl)-1,2,4-oxadiazole]
Pharm Set [1]: Moderate (as moderate actives, compounds with 4.39≤FLUC values ≤4,51)
RLU values Exp. [2]: 4.411

COC(=O)c1cccc(-c2noc(-c3ccccc3F)n2)c1 [Compound 1-NV1103]
Pharm Set [1]: Active
RLU values Exp. [2]: 4.532

COC(=O)c1cccc(-c2noc(-c3c(F)c(F)c(F)c(F)c3F)n2)c1 [Compound 13-NV1951]
Pharm Set [1]: Inactive
RLU values Exp. [2]: 4.008

COC(=O)c1cccc(-c2noc(-c3c(F)cccc3F)n2)c1 [Compound 11-NV1174, Methyl 3-(5-(2,6-difluorophenyl)-1,2,4-oxadiazol-3-yl)ben-zoate)]
Pharm Set [1]: Moderate (as moderate actives, compounds with 4.39≤FLUC values ≤4,51)
RLU values Exp. [2]: 4.414

COC(=O)c1cccc(-c2noc(-c3cc(F)c(F)cc3F)n2)c1 [Compound 4-NV1128, Methyl 3-(5-(2,4,5-trifluorophenyl)-1,2,4-oxadiazol-3-yl) benzoate)]
Pharm Set [1]: Moderate (as moderate actives, compounds with 4.39≤FLUC values ≤4,51)
RLU values Exp. [2]: 4.397

COC(=O)c1cccc(-c2noc(-c3ccc(F)c(F)c3)n2)c1 [Compound 9-NV1175, Methyl 3-(5-(3,4-difluorophenyl)-1,2,4-oxadiazol-3-yl)ben-zoate)]
Pharm Set [1]: Moderate (as moderate actives, compounds with 4.39≤FLUC values ≤4,51)
RLU values Exp. [2]: 4.269

COC(=O)c1cccc(-c2noc(-c3ccc(F)cc3F)n2)c1 [Compound 10-NV1171, Methyl 3-(5-(2,4-difluorophenyl)-1,2,4-oxadiazol-3-yl)ben-zoate)]
Pharm Set [1]: Moderate (as moderate actives, compounds with 4.39≤FLUC values ≤4,51)
RLU values Exp. [2]: 4.439

Cc1cccc(-c2nc(-c3ccncc3)no2)c1 [Compound 16-NV1861, 3-(4′-pyridyl)-5-(3′-toluyl)-1,2,4-oxadiazole]
Pharm Set [1]: Moderate (as moderate actives, compounds with 4.39≤FLUC values ≤4,51)
RLU values Exp. [2]: 4.250

Cc1cccc(-c2nc(-c3ccccc3)no2)c1 [Compound 18-NV1883, 3-(3′-phenyl)-5-(3′-toluyl)-1,2,4-oxadiazole]
Pharm Set [1]: Moderate (as moderate actives, compounds with 4.39≤FLUC values ≤4,51)
RLU values Exp. [2]: 4.428

O=C(O)c1cccc(-c2noc(-c3cc(F)c(F)cc3F)n2)c1 [Compound 5-NV1173, 3-(5-(2,4,5-Trifluorophenyl)-1,2,4-oxadiazol-3-yl)benzoic acid]
Pharm Set [1]: Active
RLU values Exp. [2]: 4.788

O=C(O)c1cccc(-c2noc(-c3ccccc3F)n2)c1 [ATALUREN, 3-(5-(2-Fluorophenyl)-1,2,4-oxadiazol-3-yl)benzoic acid]
Pharm Set [1]: Active
dead cells ([3]; 24 h): 4%
dead cells ([3]; 72 h): 7%
RLU values Exp. [2]: 4.52 and 4.528

Cc1cccc(-c2noc(-c3ccccc3C)n2)c1 [Compound 19-NV1894, 3-(3-toluyl), 5-(2-toluyl)-1,2,4-oxadiazole]
Pharm Set [1]: Moderate (as moderate actives, compounds with 4.39≤FLUC values ≤4,51)
RLU values Exp. [2]: 4.250

N#Cc1cccc(-c2nc(-c3ccccn3)no2)c1 [Compound 15-NV1859, 3-(2′-pyridyl)-5-(3′-cyanophenyl)-1,2,4-oxadiazole]
Pharm Set [1]: Moderate (as moderate actives, compounds with 4.39≤FLUC values ≤4,51)
RLU values Exp. [2]: 4.363

O=C(O)c1cccc(-c2noc(-c3cccc(F)c3)n2)c1 [Compound 3-NV1133, 3-(5-(3-Fluorophenyl)-1,2,4-oxadiazol-3-yl)benzoic acid]
Pharm Set [1]: Active
RLU values Exp. [2]: 4.628

COC(=O)c1cccc(-c2noc(-c3cccc(F)c3F)n2)c1 [Compound 8-NV1170, Methyl 3-(5-(2,3-difluorophenyl)-1,2,4-oxadiazol-3-yl)ben zoate)]
Pharm Set [1]: Moderate (as moderate actives, compounds with 4.39≤FLUC values ≤4,51)
RLU values Exp. [2]: 4.311

COC(=O)c1cccc(-c2noc(-c3ccc(F)cc3)n2)c1 [Compound 6-NV1153]
Pharm Set [1]: Inactive
RLU values Exp. [2]: 4.125

O=C(O)c1cccc(-c2noc(-c3c(F)c(F)c(F)c(F)c3F)n2)c1 [Compound 14-NV1954, 3-(5-(Perfluorophenyl)-1,2,4-oxadiazol-3-yl)benzoic acid]
Pharm Set [1]: Inactive
RLU values Exp. [2]: 4.171

COc1cccc(C(=O)c2nc(-c3ccncc3)no2)c1 [Compound 22-NV1919, 3-(4′-pyridyl)-5-(3′-anisoyl)-1,2,4-oxadiazole]
Pharm Set [1]: Moderate (as moderate actives, compounds with 4.39≤FLUC values ≤4,51)
RLU values Exp. [2]: 4.253

COC(=O)c1cccc(-c2noc(-c3cccc(F)c3)n2)c1 [Compound 2-NV1127]
Pharm Set [1]: Moderate (as moderate actives, compounds with 4.39≤FLUC values ≤4,51)
RLU values Exp. [2]: 4.477

COC(=O)c1cccc(-c2noc(-c3cccc(F)c3F)n2)c1 [Compound 7-NV1149]
Pharm Set [1]: Inactive
RLU values Exp. [2]: 4.103

Cc1cccc(-c2noc(-c3ccccc3F)n2)c1 [Compound 12-NV1798, 3-Toluyl, 5-(2-fluorophenyl)-1,2,4-oxadiazole]
Pharm Set [1]: Inactive
RLU values Exp. [2]: 4.178

Cc1cccc(-c2noc(-c3cccc(C)c3)n2)c1 [Compound 20-NV1905, 3-(3-toluyl), 5-(3-toluyl)-1,2,4-oxadiazole]
Pharm Set [1]: Inactive
RLU values Exp. ([1]; luciferase activity converted to pFLUC, [3] unpublished data): 4.181
